For this test, the system named is BDF1 mice, P388/VCR leukemia ip, median survival T/C. Put plainly: NCI In Vivo Anticancer Drug Screen. Data for tumor model P388 Leukemia resistant to Vincristine; NSC 67574 (intraperitoneal) in B6D2F1 (BDF1) mice. Conditions: endpoint: median survival time, higher = longer survival. Here is the method:
The antitumor activity of compounds was measured in mice bearing transplantable tumors. Survival or tumor size were measured and the results are expressed as the measurement made in the treated group (T) divided by the measurement made in the vehicle treated control group (C). The tumor model used in this assay is P388 Leukemia resistant to Vincristine; NSC 67574 (intraperitoneal) in B6D2F1 (BDF1) mice

The mark [1] stands for this setting: dose: 15.0 mg/kg/injection, schedule: Q01DX010 (ip), vehicle: saline.
Where [2] appears, read: dose: 30.0 mg/kg/injection, schedule: Q01DX010 (ip), vehicle: saline.
The mark [3] stands for this setting: dose: 60.0 mg/kg/injection, schedule: Q01DX010 (ip), vehicle: saline.
Setting [4] is: dose: 50.0 mg/kg/injection, schedule: Q01DX010 (ip), vehicle: saline.
Setting [5] is: dose: 100.0 mg/kg/injection, schedule: Q01DX010 (ip), vehicle: saline.
Where [6] appears, read: dose: 8.0 mg/kg/injection, schedule: Q01DX010 (ip), vehicle: saline.
[7] abbreviates: dose: 12.0 mg/kg/injection, schedule: Q01DX010 (ip), vehicle: saline.
[8] abbreviates: dose: 18.0 mg/kg/injection, schedule: Q01DX010 (ip), vehicle: saline.
[9] abbreviates: dose: 40.0 mg/kg/injection, schedule: Q01DX010 (ip), vehicle: saline.

Drawing on PubChem BioAssay AID336 (DTP/NCI, 2004), this text covers T/C for 14 compounds.

“And” between values parts separate entries of the source, which are not always exact repeats. Equal values may be shown once. Inconclusive results and toxic doses are left out. *1 amine or outer side, *2 acyl side, *3 side chain or, on linkers, in order; H or OH if unused. Where a SMILES comes first, the peptide text is derived from it. Bridges are numbered along the chain shown (N, C = ends). Roman numbers before positions name the chains, in order. [ ]: non-standard residue; d: D form. Actinocin(9to1) = Cc1c2oc3c(C)ccc(C(=O)[*:1])c3nc-2c(C(=O)[*:2])c(N)c1=O; aThr = C[C@H](O)[C@H](N)C(=O)O; NMeV = CN[C@H](C(=O)O)C(C)C; Sar = CNCC(=O)O

Take `Clc1ncnc2nc[nH]c12`: the T/C was 96 % of control and 119 % of control (dose: 7.5 mg/kg/injection, schedule: Q01DX010 (ip), vehicle: saline); 92 % of control and 107 % of control under setting [1]; 107 % of control under setting [2]; 92 % of control under setting [3].
Consider `CCN(CC)CCNc1ccc(C)c2sc3ccccc3c(=O)c12`, for which the T/C under setting [4] is 159 % of control and 172 % of control; the T/C under setting [5] was 100 % of control.
With `O=C1C(NC(=O)C2CCCCC2)=C(N2CC2)C(=O)C(NC(=O)C2CCCCC2)=C1N1CC1`, the T/C is 103 % of control (dose: 25.0 mg/kg/injection, schedule: Q01DX010 (ip), vehicle: saline); 115 % of control under setting [4]; 115 % of control under setting [5]; 123 % of control (dose: 200.0 mg/kg/injection, schedule: Q01DX010 (ip), vehicle: saline).
As for `c1ccc(CNc2ncnc3[nH]ncc23)cc1`, the T/C reads like this: under setting [6], 92 % of control and 100 % of control; (dose: 16.0 mg/kg/injection, schedule: Q01DX010 (ip), vehicle: saline) 88 % of control and 96 % of control; (dose: 32.0 mg/kg/injection, schedule: Q01DX010 (ip), vehicle: saline) 100 % of control; (dose: 64.0 mg/kg/injection, schedule: Q01DX010 (ip), vehicle: saline) 92 % of control.
On to `CC[C@]1(O)C[C@H]2CN(CCc3c([nH]c4ccccc34)[C@@](C(=O)OC)(c3cc4c(cc3OC)N(C=O)[C@H]3[C@@](O)(C(=O)OC)[C@H](OC(C)=O)[C@]5(CC)C=CCN6CC[C@]43[C@@H]65)C2)C1`, for which the T/C (dose: 0.03 mg/kg/injection, schedule: Q01DX010 (ip), vehicle: saline) was 110 % of control; the T/C (dose: 0.06 mg/kg/injection, schedule: Q01DX010 (ip), vehicle: saline) was 113 % of control; the T/C (dose: 0.12 mg/kg/injection, schedule: Q01DX010 (ip), vehicle: saline) is 114 % of control; the T/C (dose: 0.36 mg/kg/injection, schedule: Q04DX003 (ip), vehicle: saline) was 106 % of control; the T/C (dose: 0.6 mg/kg/injection, schedule: Q04DX003 (ip), vehicle: saline) is 109 % of control; the T/C (dose: 1.0 mg/kg/injection, schedule: Q04DX003 (ip), vehicle: saline) was 113 % of control. Besides, the T/C is 107 % of control (dose: 1.67 mg/kg/injection, schedule: Q04DX003 (ip), vehicle: saline); 111 % of control (dose: 250.0 micrograms/kg/injection, schedule: Q04DX003 (ip), vehicle: saline); 98 % of control and 103 % of control (dose: 324.0 micrograms/kg/injection, schedule: Q04DX003 (ip), vehicle: saline); 101 % of control and 104 % of control (dose: 360.0 micrograms/kg/injection, schedule: Q04DX003 (ip), vehicle: saline); 109 % of control (dose: 389.0 micrograms/kg/injection, schedule: Q04DX003 (ip), vehicle: saline); 106 % of control (dose: 432.0 micrograms/kg/injection, schedule: Q04DX003 (ip), vehicle: saline). For the same compound, the T/C (dose: 500.0 micrograms/kg/injection, schedule: Q04DX003 (ip), vehicle: saline) is 107 % of control; the T/C (dose: 540.0 micrograms/kg/injection, schedule: Q04DX003 (ip), vehicle: saline) is 99 % of control and 104 % of control; the T/C (dose: 600.0 micrograms/kg/injection, schedule: Q04DX003 (ip), vehicle: saline) was 99 % of control and 103 % of control; the T/C (dose: 648.0 micrograms/kg/injection, schedule: Q04DX003 (ip), vehicle: saline) was 118 % of control; the T/C (dose: 720.0 micrograms/kg/injection, schedule: Q04DX003 (ip), vehicle: saline) is 104 % of control; the T/C (dose: 900.0 micrograms/kg/injection, schedule: Q04DX003 (ip), vehicle: saline) is 104 % of control and 111 % of control. For the same compound, the T/C (dose: 1000.0 micrograms/kg/injection, schedule: Q04DX003 (ip), vehicle: saline) was 95 % of control and 104 % of control and 108 % of control; the T/C (dose: 1080.0 micrograms/kg/injection, schedule: Q04DX003 (ip), vehicle: saline) was 113 % of control; the T/C (dose: 1200.0 micrograms/kg/injection, schedule: Q04DX003 (ip), vehicle: saline) was 107 % of control; the T/C (dose: 1500.0 micrograms/kg/injection, schedule: Q04DX003 (ip), vehicle: saline) was 99 % of control and 101 % of control; the T/C (dose: 1670.0 micrograms/kg/injection, schedule: Q04DX003 (ip), vehicle: saline) was 100 % of control; the T/C (dose: 1800.0 micrograms/kg/injection, schedule: Q04DX003 (ip), vehicle: saline) is 115 % of control. In addition, the T/C (dose: 2000.0 micrograms/kg/injection, schedule: Q04DX003 (ip), vehicle: saline) was 108 % of control and 111 % of control.
In the case of `N#CCSc1ncnc2nc[nH]c12`, the T/C by setting is: under setting [1], 96 % of control and 100 % of control; under setting [2], 100 % of control and 103 % of control; under setting [3], 108 % of control and 123 % of control.
In the case of `Cc1c2oc3c(C)ccc(C(=O)N[C@@H]4C(=O)N[C@H](C(C)C)C(=O)N5CCC[C@H]5C(=O)N(C)CC(=O)N(C)[C@@H](C(C)C)C(=O)O[C@H]4C)c3nc-2c(C(=O)N[C@@H]2C(=O)N[C@H](C(C)C)C(=O)N3CCC[C@H]3C(=O)N(C)CC(=O)N(C)[C@@H](C(C)C)C(=O)O[C@H]2C)c(N)c1=O` (I: [aThr][dV]P[Sar][NMeV] / II: [aThr][dV]P[Sar][NMeV]; ester I:1-I:C, II:1-II:C; linker I:N-II:N via Actinocin(9to1)), the T/C is 108 % of control and 112 % of control (dose: 12.5 micrograms/kg/injection, schedule: Q01DX010 (ip), vehicle: other); 124 % of control (dose: 25.0 micrograms/kg/injection, schedule: Q01DX010 (ip), vehicle: other); 103 % of control (dose: 108.0 micrograms/kg/injection, schedule: Q04DX003 (ip), vehicle: saline + alcohol); 110 % of control (dose: 180.0 micrograms/kg/injection, schedule: Q04DX003 (ip), vehicle: saline + alcohol); 106 % of control (dose: 300.0 micrograms/kg/injection, schedule: Q04DX003 (ip), vehicle: saline + alcohol); 93 % of control (dose: 500.0 micrograms/kg/injection, schedule: Q04DX003 (ip), vehicle: saline + alcohol).
For `CC[C@](O)(C(=O)O)c1cc2n(c(=O)c1CO)Cc1cc3ccccc3nc1-2`, the T/C reads like this: (dose: 14.4 mg/kg/injection, schedule: Q04DX003 (ip), vehicle: saline) 155 % of control; (dose: 24.0 mg/kg/injection, schedule: Q04DX003 (ip), vehicle: saline) 180 % of control; (dose: 40.0 mg/kg/injection, schedule: Q04DX003 (ip), vehicle: saline) 102 % of control; (dose: 66.7 mg/kg/injection, schedule: Q04DX003 (ip), vehicle: saline) 161 % of control.
For `CC1CN=C(c2ccc(NC(=O)c3cccc(C(=O)Nc4ccc(C5=NCC(C)N5)cc4)c3)cc2)N1` (stereo unspecified), the T/C was 104 % of control under setting [7]; 117 % of control under setting [8]; 104 % of control (dose: 27.0 mg/kg/injection, schedule: Q01DX010 (ip), vehicle: saline); 108 % of control under setting [9].
Turning to `CC[C@H]1CN2CCc3cc(OC)c(OC)cc3[C@@H]2C[C@@H]1C[C@H]1NCCc2cc(OC)c(OC)cc21`, the T/C reads like this: (dose: 7.78 mg/kg/injection, schedule: Q04DX003 (ip), vehicle: saline) 105 % of control; (dose: 13.0 mg/kg/injection, schedule: Q04DX003 (ip), vehicle: saline) 108 % of control; (dose: 21.6 mg/kg/injection, schedule: Q04DX003 (ip), vehicle: saline) 105 % of control.
On to `C[C@@H]1C[C@@H]([C@H](O)CC2CC(=O)NC(=O)C2)C(=O)[C@@H](C)C1`, for which the T/C reads like this: (dose: 5.0 mg/kg/injection, schedule: Q01DX010 (ip), vehicle: saline) 92 % of control and 108 % of control; (dose: 10.0 mg/kg/injection, schedule: Q01DX010 (ip), vehicle: saline) 100 % of control and 104 % of control; (dose: 20.0 mg/kg/injection, schedule: Q01DX010 (ip), vehicle: saline) 112 % of control and 116 % of control; under setting [9], 120 % of control and 124 % of control.
As for `COc1cc(-c2ccc(Nc3ccccc3C(=O)O)c(OC)c2)ccc1Nc1ccccc1C(=O)O`, under setting [5], the T/C was 150 % of control.
Consider `COc1cccc2c1C(=O)c1c(O)c3c(c(O)c1C2=O)C[C@@](O)(C(C)=O)C[C@@H]3OC1CC(N)C(O)C(C)O1` (stereo partly specified), for which the T/C reads like this: (dose: 3.6 mg/kg/injection, schedule: Q04DX003 (ip), vehicle: water) 110 % of control; (dose: 6.0 mg/kg/injection, schedule: Q04DX003 (ip), vehicle: water) 104 % of control; (dose: 8.0 mg/kg/injection, schedule: Q04DX003 (ip), vehicle: water) 114 % of control.
For the compound `O=C(Nc1ccc(C2=NCCN2)cc1)c1ccc(C(=O)Nc2ccc(C3=NCCN3)cc2)c([N+](=O)[O-])c1`, the T/C reads like this: (dose: 6.0 mg/kg/injection, schedule: Q01DX010 (ip), vehicle: saline) 103 % of control; under setting [6], 114 % of control; under setting [7], 111 % of control; under setting [8], 104 % of control and 111 % of control.
